The values that follow come from paper PMC12305494, “Discovery of PXR Antagonist MI891 and PXR Degrader MI1013 and Their Roles in Hepatic Gene Regulation” (Journal of Medicinal Chemistry, 2025).

Numbering of substitutions follows the chain as printed. Where two headings read alike, the source gives them in different places. A value given as a limit tells only on which side of the number the result lay.

Data set [1] in a line: Plasma stability, mouse plasma. Type of data set: in vitro ADME. The conditions noted are these: up to 120 min, read-out: Plasma stability, t1/2 (min), mouse. The method, then: (§1) The protocols and reagents for the plasma protein binding assay and metabolic stability testing in human and mouse liver microsomes are detailed in our previous report. Briefly, metabolic stability of compounds was assessed at a single concentration (5 μM) at t = 0, 10, 30, and at t = 45 min. The stability of compounds was tested in human and mouse microsomes (ThermoFisher Scientific). Compounds were tested in triplicate with or without NADPH wells as a negative control for cytochrome P450 metabolism. In addition to hepatic metabolism, compounds were also subjected to degradation/modification by enzymes in human (VWR International) and mouse (Biomedica, CZ) plasma for t = 0, 30, 60, and at t = 120 min. Each assay included a substrate with known activity as a positive control. Time points were analyzed by LC/MS/MS. The peak area for the parent compound is compared to the time zero sample in order to assess the amount of remaining compound.

In data set [2] the target is T1, human CAR LBD (Homo sapiens, UniProt Q14994).
T1 sequence (Q14994 103-352): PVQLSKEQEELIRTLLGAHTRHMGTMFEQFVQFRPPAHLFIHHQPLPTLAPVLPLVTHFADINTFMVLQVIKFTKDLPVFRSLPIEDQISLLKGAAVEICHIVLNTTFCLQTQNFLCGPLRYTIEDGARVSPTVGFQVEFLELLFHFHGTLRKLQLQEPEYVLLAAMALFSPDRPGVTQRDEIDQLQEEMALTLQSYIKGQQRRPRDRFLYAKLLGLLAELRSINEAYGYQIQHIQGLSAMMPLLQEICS
Kind of data set: LanthaScreen TR-FRET CAR Coactivator assay. Type of data set: biochemical. To be noted: nb = no binding. As for the experimental part: We utilized the LanthaScreen TR-FRET CAR Coactivator Binding Assay Kit, goat (Thermo Fisher Scientific, Cat. No. PV4836), which includes GST-tagged human CAR LBD and a fluorescein-labeled PGC1α coactivator peptide. The assay was performed with slight modifications to the manufacturer’s protocol, as previously reported. […] The interaction with the PXR ligand-binding domain (LBD) was assessed using the LanthaScreen TR-FRET PXR Competitive Binding Assay (Thermo Fisher Scientific, PV4839), as previously described. This assay quantifies the ability of test compounds to displace a fluorescent PXR ligand from the receptor. Fluorescence readings were taken on a Synergy 2 Multi-Mode Microplate Reader (BioTek, Winooski, VT). The half-maximal inhibitory concentration (IC50) for PXR LBD was calculated from at least eight data points using GraphPad Prism software.
A general note: Time-resolved FRET reads energy transfer from a long-lived donor to a nearby acceptor.

Data set [3] can be described thus: Plasma stability, human plasma. Type of data set: in vitro ADME. The conditions noted are these: up to 120 min, read-out: Plasma stability, t1/2 (min), human.
A short description of data set [4]: Microsomal stability, mouse microsomes. Type of data set: in vitro ADME. To be noted: liver microsomes; for half-life at 5 μM: 0.5 mg/mL mouse microsomes, up to 45 min, read-out: Microsomal stability, t1/2 (min), mouse. The method, then:
as §1, with “Briefly, metabolic stability of compounds was assessed at a single concentration (5 μM) at t = 0, 10, 30, and at t = 45 min.” left out, “In addition to hepatic metabolism, compounds were also subjected to degradation/modification by enzymes in human (VWR International) and mouse (Biomedica, CZ) plasma for t = 0, 30, 60, and at t = 120 min.” left out

Data set [5] can be described thus: Microsomal stability, human microsomes. Type of data set: in vitro ADME. To be noted: liver microsomes; for half-life at 5 μM: 0.5 mg/mL human microsomes, up to 45 min, read-out: Microsomal stability, t1/2 (min), human; for microsomal CLint at 5 μM: human microsomes, read-out: Microsomal clearance CLint (μl/min/mg), human. The method, then: as §1, with “Briefly, metabolic stability of compounds was assessed at a single concentration (5 μM) at t = 0, 10, 30, and at t = 45 min.” left out, “In addition to hepatic metabolism, compounds were also subjected to degradation/modification by enzymes in human (VWR International) and mouse (Biomedica, CZ) plasma for t = 0, 30, 60, and at t = 120 min.” left out
(Microsomes from liver hold many membrane-bound enzymes, among them those of drug oxidation.)

Data set [6] deals with T2, PXR (Homo sapiens, UniProt O75469).
T2 sequence (O75469 1-434): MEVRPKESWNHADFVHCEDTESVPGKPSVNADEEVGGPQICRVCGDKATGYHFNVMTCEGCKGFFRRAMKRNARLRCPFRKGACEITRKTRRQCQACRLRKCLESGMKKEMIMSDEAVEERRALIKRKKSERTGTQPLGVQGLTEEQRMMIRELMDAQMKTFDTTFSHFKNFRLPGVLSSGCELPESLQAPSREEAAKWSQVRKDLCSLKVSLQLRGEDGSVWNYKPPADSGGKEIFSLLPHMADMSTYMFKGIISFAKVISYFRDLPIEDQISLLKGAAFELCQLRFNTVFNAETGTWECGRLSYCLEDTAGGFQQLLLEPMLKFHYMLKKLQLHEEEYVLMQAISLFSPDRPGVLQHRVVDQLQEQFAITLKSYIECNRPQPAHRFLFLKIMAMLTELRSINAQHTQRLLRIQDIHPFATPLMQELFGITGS
Kind of data set: cell-based. The conditions noted are these: PXR antagonism: PXR inhibition (IC50, μM), antagonist mode with 10 μM rifampicin; mean ± SD, n = 3.

Data set [7] deals with T3, human CAR LBD (Homo sapiens, UniProt Q14994).
T3 construct: constructs encoding helices 3–12 and helix 1 of human CAR LBD; expressed in transfected cells; host or cells: HepG2
T3 sequence (Q14994 103-150 isoform Q14994-2 limits assumed): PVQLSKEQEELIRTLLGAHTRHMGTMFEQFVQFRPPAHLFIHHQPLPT
T3 sequence (Q14994 151-348 isoform Q14994-2 limits assumed): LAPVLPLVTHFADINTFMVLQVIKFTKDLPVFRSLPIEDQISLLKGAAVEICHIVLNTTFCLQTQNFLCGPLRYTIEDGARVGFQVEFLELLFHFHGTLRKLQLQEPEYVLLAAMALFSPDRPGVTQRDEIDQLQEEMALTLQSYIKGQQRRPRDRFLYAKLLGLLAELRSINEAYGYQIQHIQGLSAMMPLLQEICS
Kind of data set: CAR LBD assembly assay (CAR AA). The conditions noted are these: na = no activity; tox = cytotoxicity in HepG2 cells. The format is cell-based. The text has this: The CAR LBD assembly assay used constructs encoding helices 3–12 and helix 1 of human CAR LBD as described before. GL4.31[luc2P/GAL4UAS/Hygro] (pGAL4 UAS-luc) luciferase reporter vector and pRL-TK Renilla expression vector (Promega) were used in the assay in HepG2 cells transfected using Lipofectamine 3000.

Data set [8] relates to PXR. Set-up: method as in not given. The conditions noted are these: ref not given, cited from earlier work.
In another data set the target is T4, wild-type PXR LBD (Homo sapiens, UniProt O75469).
T4 construct: HepG2 cells were cotransfected with a GAL4-hPXR LBD construct and pSCR1-VP16 construct; expressed in transfected cells; host or cells: HepG2
T4 sequence (O75469 146-433 limits assumed): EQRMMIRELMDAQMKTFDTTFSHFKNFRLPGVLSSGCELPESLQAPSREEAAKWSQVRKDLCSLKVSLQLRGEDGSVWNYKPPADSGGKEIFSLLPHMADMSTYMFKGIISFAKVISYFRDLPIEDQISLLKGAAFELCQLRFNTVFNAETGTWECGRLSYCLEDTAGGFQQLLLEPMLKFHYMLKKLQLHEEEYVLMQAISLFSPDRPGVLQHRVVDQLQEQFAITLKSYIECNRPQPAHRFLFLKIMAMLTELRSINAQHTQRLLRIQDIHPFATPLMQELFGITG
Kind of data set: Mammalian two-hybrid assay, wt-PXR LBD with SRC-1-VP16 in HepG2. The format is cell-based. The conditions noted are these: MI891 at 10 μM. The text has this:
(§2) Additionally, the GAL4-PXR-LBD triple mutants (S247W/C284W/S208W) construct and wild-type GAL4-wtPXR vector were used for PXR LBD mutant functional two-hybrid assay as we described before. In the mammalian two-hybrid assay, HepG2 cells were cotransfected with a GAL4-hPXR LBD construct and pSCR1-VP16 construct. Renilla luciferase vector was used for the normalization of firefly luciferase activity to Renilla luciferase activity.

For data set [9], the target named is T5, triple mutant (S208W/S247W/C284W) PXR LBD (Homo sapiens, UniProt O75469, C284W/S208W/S247W).
T5 construct: the GAL4-PXR-LBD triple mutants (S247W/C284W/S208W) construct; expressed in transfected cells; host or cells: HepG2
T5 sequence (O75469 146-433 S208W/S247W/C284W limits assumed): T4 sequence (O75469 146-433 limits assumed) with S63W, S102W, C139W
The experiment in a line: Mammalian two-hybrid assay, obstructed triple mutant PXR LBD with SRC-1-VP16 in HepG2. The format is cell-based.
Text: as §2

For a further data set, the system named is HepaRG cells. The experiment in a line: RT-qPCR gene expression in differentiated HepaRG cells. To be noted: 48 h. The format is cell-based, human. The method, then: HepaRG cells (Sigma-Aldrich/Merck) were cultivated and differentiated on 12-well plates. Seeded at 26,600 cells/cm^2, they were maintained in William’s medium with supplements. After 14 days, differentiation into hepatocyte-like cells was induced using 1.5% DMSO for another 14 days.
RT-qPCR was utilized to investigate gene expression in HepaRG and PHH. Total RNA was extracted from these cells using the phenol–chloroform method. The concentration of the isolated RNA was then measured using a Nanodrop 1000 spectro-photometer (Thermo Fisher Scientific).
Following RNA isolation, reverse transcription was performed to convert RNA into complementary DNA (cDNA). This step was carried out using the High-capacity cDNA reverse transcription kit (Cat. No. 4374966, ThermoFisher Scientific). The resulting cDNA served as the template for subsequent qPCR reactions.
The qPCR reactions were conducted on the QuantStudio 6 Flex Real-Time PCR System (ThermoFisher Scientific, Waltham, Mas-sachusetts). For these reactions, TaqMan Universal master mix II (Cat. No. 4440047, ThermoFisher Scientific) and TaqMan assays (FAM) utilized in this study are detailed in the Supporting Information. To quantify gene expression, the cycle threshold (Ct) values of the target genes were normalized to the Ct values of reference genes HPRT1 or GAPDH (HepaRG) or TBP (PHH). The normalized values were then expressed as fold changes (2−ΔΔCt) relative to the DMSO control at the specified time points, with the control set as 1.
Background: Quantitative PCR measures a nucleic acid by following its amplification.

For data set [10], the system named is PXR. Set-up: method as in not given. To be noted: read-out: Ki printed beside SPA70 in Figure 6A; ref not given; cited from earlier work.

With `NC(=O)c1cc(Cn2cc(-c3c(-c4ccc(Cl)cc4)nc4c(F)cccn34)nn2)ccc1Cl` [Compound 8, 2-Chloro-5-((4-(2-(4-chlorophenyl)-8-fluoroimidazo[1,2-a]pyridin-3-yl)-1H-1,2,3-triazol-1-yl)methyl)benzamide], the half-life in data set [1] and in data set [3] was greater than 120 min throughout. Moreover, the “CAR TR-FRET (EC50, μM)” value on human CAR LBD [2] is on record as “nb”. For the same compound, the figures for the half-life at 5 μM in [4] and in data set [5] were 8 min and 50 ± 4 min, respectively. The microsomal CLint at 5 μM was found to be 168 ± 8 µL/min/mg in [4] (mouse microsomes, read-out: Microsomal clearance CLint (μl/min/mg), mouse) and 28 ± 2 µL/min/mg in data set [5]. The compound also had an IC50 against PXR [6] of 12.4 ± 6 µM. The EC50 on human CAR LBD [7] was 4.14 ± 0.2 µM.

For `NC(=O)c1cc(Cn2cc(-c3c(-c4ccc(Cl)cc4)nc4ccc(F)cn34)nn2)ccc1Cl` [Compound 10, 2-Chloro-5-((4-(2-(4-chlorophenyl)-6-fluoroimidazo[1,2-a]pyridin-3-yl)-1H-1,2,3-triazol-1-yl)methyl)benzamide], the half-life in data set [1] and in [3] was greater than 120 min in each case. The “CAR TR-FRET (EC50, μM)” value on human CAR LBD [2] was “nb”. Besides, the half-life at 5 μM was greater than 45 min in data set [4] and 55 ± 9 min in [5]. The microsomal CLint at 5 μM in [5] was 26 ± 4 µL/min/mg. This compound also gave an IC50 against PXR [6] of 6.46 ± 0.6 µM. This compound returned a concentration for a half-maximal effect (EC50) at human CAR LBD [7] greater than 10 µM.

In the case of `CCC[C@H](CC)Oc1ccc(C(=O)OC)cc1NC(=O)c1nnn(-c2cc(OC)ccc2OC)c1C` [SJPYT-331], the 50% inhibitory concentration (IC50) with PXR [8] (quoted in the Introduction, read-out: PXR antagonist IC50) is 0.0071 ± 0.0008 µM.

For the compound `COc1ccc(OC)c(-n2nnc(S(=O)(=O)c3ccc(C(C)(C)C)cc3)c2C)c1` [SPA70, reference compound], at wild-type PXR LBD, the “effect on wt-PXR-LBD/SRC1-VP16 two-hybrid” value is reported as “activated the wild-type (wt) PXR LBD construct”. Besides, the IC50 with PXR [8] (read-out: IC50 printed beside SPA70 in Figure 6A) is […]. Also, the “activation of obstructed mutated PXR LBD two-hybrid” value in [9] is reported as “Neither MI891 nor SPA70 activated the obstructed mutated PXR LBD”. Besides, in the data set with HepaRG cells (MI891 5 μM, SPA70 5 μM), the CYP2B6 gene expression entry is “downregulated”. For the same compound, the “CYP3A4 mRNA expression” value in the data set on HepaRG cells (alone or with rifampicin (5 μM), concentration-dependent) is listed as “CYP3A4 mRNA suppression”. The inhibition constant Ki in the data set with PXR [10] was […].

What is called IC50 is the midpoint of a concentration-inhibition curve. The EC50 is the midpoint of the concentration-response curve. Higher therefore signals a less potent agent. As a reminder, the Ki is the equilibrium dissociation constant of an inhibitor or competing ligand from its target.
